Test results published in PubChem BioAssay AID264 (DTP/NCI, 2004).
“And” between values parts separate entries of the source, which are not always exact repeats. Equal values may be shown once. Inconclusive results are not listed. Numbered stars: 1 amine (or outer) side, 2 acyl side, 3 side chain; on linkers, the order of the positions; unused ones are H or OH. Bridge positions count the residues as written; N and C are the ends. Square brackets hold non-standard residues; d marks the D form. Peptide text beside a SMILES is read from it. I, II: the chains in the order shown. Actinocin(9to1) = Cc1c2oc3c(C)ccc(C(=O)[*:1])c3nc-2c(C(=O)[*:2])c(N)c1=O; aThr = C[C@H](O)[C@H](N)C(=O)O; NMeV = CN[C@H](C(=O)O)C(C)C; Sar = CNCC(=O)O

Tested on: nude mice, LX-1 lung xenograft intrarenal, tumor weight T/C
Assay: NCI In Vivo Anticancer Drug Screen. Data for tumor model Human Lung LX-1 Xenograft (intrarenal inoculation) in NU/NU Swiss (nude) mice
Settings: endpoint: mean tumor weight change, higher = larger tumour
Experimental: The antitumor activity of compounds was measured in mice bearing transplantable tumors. Survival or tumor size were measured and the results are expressed as the measurement made in the treated group (T) divided by the measurement made in the vehicle treated control group (C). The tumor model used in this assay is Human Lung LX-1 Xenograft (intrarenal inoculation) in NU/NU Swiss (nude) mice

[1] = dose: 300.0 mg/kg/injection, schedule: Q04DX003 (sc), vehicle: saline with Tween-80
[2] = dose: 600.0 mg/kg/injection, schedule: Q04DX003 (sc), vehicle: saline with Tween-80
[3] = dose: 1200.0 mg/kg/injection, schedule: Q04DX003 (sc), vehicle: saline with Tween-80
[4] = dose: 300.0 mg/kg/injection, schedule: Q04DX003 (sc), vehicle: suspension in saline
[5] = dose: 600.0 mg/kg/injection, schedule: Q04DX003 (sc), vehicle: suspension in saline
[6] = dose: 1200.0 mg/kg/injection, schedule: Q04DX003 (sc), vehicle: suspension in saline
[7] = dose: 2400.0 mg/kg/injection, schedule: Q04DX003 (sc), vehicle: saline with Tween-80
[8] = dose: 50.0 mg/kg/injection, schedule: Q04DX003 (sc), vehicle: water
[9] = dose: 150.0 mg/kg/injection, schedule: Q04DX003 (sc), vehicle: suspension in saline
[10] = dose: 50.0 mg/kg/injection, schedule: Q01DX010 (sc), vehicle: saline with Tween-80
[11] = dose: 100.0 mg/kg/injection, schedule: Q01DX010 (sc), vehicle: saline with Tween-80

COC(=O)C(Cl)(Cl)N=Nc1c(Cl)cc(Cl)c(C)c1Cl was tested, and the T/C (dose: 150.0 mg/kg/injection, schedule: Q04DX003 (sc), vehicle: saline with Tween-80) was 210 % of control, the T/C [1] was 196 % of control and the T/C [2] was 237 % of control. The T/C [3] was 209 % of control.
For N=c1ccn2c(n1)OC1C(O)C(CO)OC12 (centres undefined), the T/C (dose: 37.5 mg/kg/injection, schedule: Q04DX003 (sc), vehicle: saline) was 91 % of control, the T/C (dose: 75.0 mg/kg/injection, schedule: Q04DX003 (sc), vehicle: saline) was 95 % of control and the T/C (dose: 150.0 mg/kg/injection, schedule: Q04DX003 (sc), vehicle: saline) was 121 % of control. For the same compound, the T/C (dose: 300.0 mg/kg/injection, schedule: Q04DX003 (sc), vehicle: saline) was 77 % of control, the T/C [4] was 176 % of control and the T/C [5] was 231 % of control. For the same compound, the T/C (dose: 800.0 mg/kg/injection, schedule: Q04DX003 (sc), vehicle: saline) was 24 % of control and 48 % of control, the T/C [6] was 41 % of control and the T/C (dose: 1600.0 mg/kg/injection, schedule: Q04DX003 (sc), vehicle: saline) was 18 % of control and 31 % of control. For the same compound, the T/C (dose: 2400.0 mg/kg/injection, schedule: Q04DX003 (sc), vehicle: suspension in saline) was 36 % of control and the T/C (dose: 3200.0 mg/kg/injection, schedule: Q04DX003 (sc), vehicle: saline) was 6 % of control and 18 % of control.
With COc1cccc(C2NC(=O)c3c(n[nH]c3N)S2)c1O (centres undefined) the T/C [1] was 171 % of control, the T/C [2] was 77 % of control and the T/C [3] was 95 % of control. The T/C [7] was 162 % of control.
For CNC(=O)c1cccc2c(Nc3ccc(NS(C)(=O)=O)cc3OC)c3cccc(C)c3nc12, the T/C [8] was 69 % of control.
For NC(=O)/C=C/c1c[nH]c2nccnc12, the T/C [8] was 86 % of control.
With CSC(SC)=C1C(=O)NC(=O)NC1=O the T/C [9] was 68 % of control, the T/C [4] was 102 % of control and the T/C [5] was 42 % of control.
For Nc1ccc(Cl)cc1N, the T/C (dose: 450.0 mg/kg/injection, schedule: Q04DX003 (sc), vehicle: saline with Tween-80) was 115 % of control and the T/C (dose: 900.0 mg/kg/injection, schedule: Q04DX003 (sc), vehicle: saline with Tween-80) was 92 % of control.
With Nc1ccccc1N the T/C (dose: 25.0 mg/kg/injection, schedule: Q01DX010 (sc), vehicle: Klucel (hydroxypropylcellulose) (HPC)) was 55 % of control, the T/C (dose: 100.0 mg/kg/injection, schedule: Q01DX010 (sc), vehicle: Klucel (hydroxypropylcellulose) (HPC)) was 66 % of control and 75 % of control and the T/C (dose: 200.0 mg/kg/injection, schedule: Q01DX010 (sc), vehicle: Klucel (hydroxypropylcellulose) (HPC)) was 83 % of control.
In the case of COC(=O)[C@@]12OC[C@]34[C@H]([C@@H](O)[C@@H]1O)[C@@]1(C)CC(=O)C(O)=C(C)[C@@H]1C[C@H]3OC(=O)[C@H](OC(=O)/C=C(\C)C(C)C)[C@@H]24, the T/C (dose: 0.25 mg/kg/injection, schedule: Q04DX003 (sc), vehicle: saline + alcohol) is reported as 115 % of control, the T/C (dose: 0.5 mg/kg/injection, schedule: Q01DX010 (sc), vehicle: saline + alcohol) is reported as 101 % of control and the T/C (dose: 0.5 mg/kg/injection, schedule: Q04DX003 (sc), vehicle: saline + alcohol) is reported as 91 % of control. The T/C (dose: 1.0 mg/kg/injection, schedule: Q04DX003 (sc), vehicle: saline + alcohol) was 114 % of control and the T/C (dose: 2.0 mg/kg/injection, schedule: Q04DX003 (sc), vehicle: saline + alcohol) was 59 % of control.
With CC12CCC3C(CCC4CC(OC(=O)Cc5ccc(N(CCCl)CCCl)cc5)CCC43C)C1CCC(=O)N2 (centres undefined) the T/C (dose: 25.0 mg/kg/injection, schedule: Q04DX003 (sc), vehicle: saline with Tween-80) was 43 % of control and 66 % of control and the T/C (dose: 200.0 mg/kg/injection, schedule: Q04DX003 (sc), vehicle: saline with Tween-80) was 8 % of control and 9 % of control.
In the case of BrCC[Se]c1ccccc1, the T/C [10] is reported as 92 % of control, the T/C [11] is reported as 62 % of control and the T/C (dose: 200.0 mg/kg/injection, schedule: Q01DX010 (sc), vehicle: saline with Tween-80) is reported as 55 % of control.
For CCN(CC)c1ccc2cc(-c3nc4ccccc4n3C)c(=O)oc2c1, the T/C (dose: 75.0 mg/kg/injection, schedule: Q04DX003 (sc), vehicle: Klucel (hydroxypropylcellulose) (HPC)) was 105 % of control and the T/C (dose: 150.0 mg/kg/injection, schedule: Q04DX003 (sc), vehicle: Klucel (hydroxypropylcellulose) (HPC)) was 81 % of control.
In the case of Cc1cc(NCCN(C(C)C)C(C)C)nc(/N=C(\N)Nc2ccc(Cl)c(C(F)(F)F)c2)n1, the T/C (dose: 40.0 mg/kg/injection, schedule: Q04DX003 (sc), vehicle: Klucel (hydroxypropylcellulose) (HPC)) is reported as 45 % of control, the T/C (dose: 80.0 mg/kg/injection, schedule: Q04DX003 (sc), vehicle: Klucel (hydroxypropylcellulose) (HPC)) is reported as 60 % of control and the T/C (dose: 160.0 mg/kg/injection, schedule: Q04DX003 (sc), vehicle: Klucel (hydroxypropylcellulose) (HPC)) is reported as 46 % of control. For the same compound, the T/C (dose: 320.0 mg/kg/injection, schedule: Q04DX003 (sc), vehicle: Klucel (hydroxypropylcellulose) (HPC)) was 62 % of control.
In the case of Cc1ccc(C2NC(=O)c3ccccc3N2)s1 (centres undefined), the T/C (dose: 600.0 mg/kg/injection, schedule: Q04DX003 (sc), vehicle: Klucel (hydroxypropylcellulose) (HPC)) is reported as 106 % of control, the T/C (dose: 1200.0 mg/kg/injection, schedule: Q04DX003 (sc), vehicle: Klucel (hydroxypropylcellulose) (HPC)) is reported as 86 % of control and the T/C (dose: 2400.0 mg/kg/injection, schedule: Q04DX003 (sc), vehicle: Klucel (hydroxypropylcellulose) (HPC)) is reported as 82 % of control. For the same compound, the T/C (dose: 4800.0 mg/kg/injection, schedule: Q04DX003 (sc), vehicle: Klucel (hydroxypropylcellulose) (HPC)) was 94 % of control.
In the case of COCCCNC1=C(C#N)C(=O)NC(c2cccc([N+](=O)[O-])c2)S1 (centres undefined), the T/C [1] is reported as 109 % of control, the T/C [2] is reported as 78 % of control and the T/C [3] is reported as 124 % of control. For the same compound, the T/C [7] was 68 % of control.
With COc1c(O)c2c(c3cc(C(=O)N4CCc5c4c(O)c(OC)c4[nH]c(C(=O)N6CC7CC78C6=CC(=O)c6[nH]cc(C)c68)cc54)[nH]c13)CCN2C(N)=O (centres undefined) the T/C (dose: 6.25 micrograms/kg/injection, schedule: Q01DX010 (sc), vehicle: DMSO) was 121 % of control, the T/C (dose: 12.5 micrograms/kg/injection, schedule: Q01DX010 (sc), vehicle: DMSO) was 107 % of control and the T/C (dose: 25.0 micrograms/kg/injection, schedule: Q01DX010 (sc), vehicle: DMSO) was 68 % of control. The T/C (dose: 50.0 micrograms/kg/injection, schedule: Q01DX010 (sc), vehicle: DMSO) was 66 % of control.
OCCN1CCN(CC/C=C2/c3ccccc3Sc3ccc(C(F)(F)F)cc32)CC1 was tested, and the T/C (dose: 10.0 mg/kg/injection, schedule: Q01DX010 (sc), vehicle: saline) was 54 % of control, the T/C (dose: 20.0 mg/kg/injection, schedule: Q01DX010 (sc), vehicle: saline) was 45 % of control and the T/C (dose: 40.0 mg/kg/injection, schedule: Q01DX010 (sc), vehicle: saline) was 29 % of control.
In the case of C[C@@H](CN1CC(=O)NC(=O)C1)N1CC(=O)NC(=O)C1, the T/C [10] is reported as 91 % of control and the T/C [11] is reported as 34 % of control.
For C[n+]1c(/C=N/NC(N)=S)ccc2ccccc21, the T/C [1] was 93 % of control, the T/C [2] was 101 % of control and the T/C [3] was 102 % of control.
With Cc1c2oc3c(C)ccc(C(=O)N[C@@H]4C(=O)N[C@H](C(C)C)C(=O)N5CCC[C@H]5C(=O)N(C)CC(=O)N(C)[C@@H](C(C)C)C(=O)O[C@H]4C)c3nc-2c(C(=O)N[C@@H]2C(=O)N[C@H](C(C)C)C(=O)N3CCC[C@H]3C(=O)N(C)CC(=O)N(C)[C@@H](C(C)C)C(=O)O[C@H]2C)c(N)c1=O (I: [aThr][dV]P[Sar][NMeV] / II: [aThr][dV]P[Sar][NMeV]; ester I:1-I:C, II:1-II:C; linker I:N-II:N via Actinocin(9to1)) the T/C (dose: 100.0 micrograms/kg/injection, schedule: Q01DX010 (sc), vehicle: saline) was 13 % of control and 24 % of control and the T/C (dose: 200.0 micrograms/kg/injection, schedule: Q01DX010 (sc), vehicle: saline) was 13 % of control.
With O=C1C(=O)c2ccccc2C(O)=C1CC=C(Cl)Cl the T/C (dose: 25.0 mg/kg/injection, schedule: Q01DX010 (sc), vehicle: water) was 255 % of control, the T/C (dose: 50.0 mg/kg/injection, schedule: Q01DX010 (sc), vehicle: water) was 95 % of control and the T/C (dose: 100.0 mg/kg/injection, schedule: Q01DX010 (sc), vehicle: water) was 117 % of control. For the same compound, the T/C (dose: 200.0 mg/kg/injection, schedule: Q01DX010 (sc), vehicle: water) was 158 % of control.
With CCOC(=O)[C@]1(Br)CC[C@@]1(Br)C(=O)OCC the T/C (dose: 800.0 mg/kg/injection, schedule: Q04DX003 (sc), vehicle: saline with Tween-80) was 107 % of control and the T/C [3] was 123 % of control.
For CC1=C(C)C(=O)O[C@@H]([C@](C)(O)[C@]2(O)CC[C@@]3(O)[C@@H]4C[C@H]5O[C@]56CC=CC(=O)[C@]6(C)[C@H]4CC[C@]23C)C1, the T/C [9] was 112 % of control, the T/C [4] was 84 % of control and the T/C [5] was 46 % of control. For the same compound, the T/C [6] was 81 % of control.
In the case of CC1(C)OCC2OC=CC(=O)C2O1 (centres undefined), the T/C [1] is reported as 89 % of control.
CS(=O)(=O)CS(=O)(=O)OCCCl was tested, and the T/C [9] was 94 % of control.
